Measurements reported in patent US10112940B2, “Histone demethylase inhibitors” (Celgene Quanticel Research, Inc., priority 2014, dated 2018).

Columns and labels:
[1] = tested on: KYSE-150 esophageal carcinoma cell line; experiment: In vitro cell-based assay: BrdU incorporation cell proliferation ELISA; parameters: species or system human; settings: Homo sapiens, KYSE-150 cells, 168 hours compound incubation, read-out: Cellular IC50
Procedure: Cell lines tested include the JMJD2C gene amplified cell line KYSE-150. This is a quantitative ELISA assay measuring DNA incorporation of BrdU during S-phase as a direct readout of cellular proliferation.
Assay Principle: This is a colorimetric immunoassay for the quantification of cell proliferation. Cells treated for 168 hours with test compounds are assayed for their ability to go through S-phase as a measure of their proliferative potential.
Assay Method: The human KYSE-150 (SMAD4 mut, TP53 mut) esophageal carcinoma cell line was seeded at 2,000 cells/well on a 96-well tissue culture treated plate. After an overnight incubation, cells were treated with compound in an 11-point dilution series with final concentrations ranging from 100 μM to 2 nM. Cells were then incubated in the presence of compound for 168 hours. After compound incubation the cells were assayed using a BrdU Cell Proliferation ELISA (Roche). The cells were first incubated with BrdU labeling reagent for 2 hours. After 2 hours, the BrdU incorporated cells were fixed and denatured, probed with an anti-BrdU-Peroxidase antibody for 1.5 hours and washed. Finally, a tetramethylbenzidine peroxidase substrate was added to each well for 15 minutes followed by a H2SO4 stop solution. The plate was read at 450 nm, and the raw optical density data was transferred into XLFit (IDBS) for IC50 calculation using the formula: fit=(D+((Vmax*(x^n))/((x^n)+(Km^n))))
Table 4 provides the cellular IC50 values of various compounds disclosed herein.

[2] = target: JMJD2C (Homo sapiens (Human), UniProt Q9H3R0); experiment: JMJD2C in vitro enzyme inhibition assay (TR-FRET); type: biochemical; settings: 0.3 nM JMJD2C, 300 nM H3K9me3-biotin peptide, 2 μM alpha-ketoglutaric acid, 30 minutes
JMJD2C, sequence (Q9H3R0 2-372): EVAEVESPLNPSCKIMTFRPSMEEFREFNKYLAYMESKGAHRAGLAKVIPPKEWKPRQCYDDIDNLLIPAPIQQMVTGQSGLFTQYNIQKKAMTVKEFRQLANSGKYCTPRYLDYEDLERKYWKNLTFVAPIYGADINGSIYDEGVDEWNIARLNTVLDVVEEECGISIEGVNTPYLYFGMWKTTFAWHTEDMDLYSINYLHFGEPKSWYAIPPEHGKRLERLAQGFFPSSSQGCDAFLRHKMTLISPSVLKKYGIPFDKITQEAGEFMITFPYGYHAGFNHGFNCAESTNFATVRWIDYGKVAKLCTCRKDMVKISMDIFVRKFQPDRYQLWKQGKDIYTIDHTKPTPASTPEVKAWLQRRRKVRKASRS
Procedure: This assay determines the ability of a test compound to inhibit JMJD2C demethylase activity. Baculovirus expressed JMJD2C (GenBank Accession #BC143571, AA 2-372) was purchased from BPS Bioscience (Cat#50105).
The ability of test compounds to inhibit the activity of JMJD2C was determined in 384-well plate format under the following reaction conditions: 0.3 nM JMJD2C, 300 nM H3K9me3-biotin labeled peptide (Anaspec cat #64360), 2 μM alpha-ketoglutaric acid in assay buffer of 50 mM HEPES, pH7.3, 0.005% Brij35, 0.5 mM TCEP, 0.2 mg/ml BSA, 50 μM sodium L-ascorbate, and 2 μM ammonium iron(II) sulfate. Reaction product was determined quantitatively by TR-FRET after the addition of detection reagent Phycolink Streptavidin-allophycocyanin (Prozyme) and Europium-anti-di-methylated histone H3 lysine 9 (H3K9me2) antibody (PerkinElmer) in the presence of 5 mM EDTA in LANCE detection buffer (PerkinElmer) at a final concentration of 50 nM and 1 nM, respectively.
The assay reaction was initiated by the following: 2 μl of the mixture of 900 nM H3K9me3-biotin labeled peptide and 6 μM alpha-ketoglutaric acid with 2 μl of 11-point serial diluted inhibitor in 3% DMSO were added to each well of the plate, followed by the addition of 2 μl of 0.9 nM JMJD2C to initiate the reaction. The reaction mixture was incubated at room temperature for 30 minutes, and terminated by the addition of 6 μl of 5 mM EDTA in LANCE detection buffer containing 100 nM Phycolink Streptavidin-allophycocyanin and 2 nM Europium-anti-H3K9me2 antibody. Plates were read by EnVisionMultilabel Reader in TR-FRET mode (excitation at 320 nm, emission at 615 nm and 665 nm) after 1 hour incubation at room temperature. A ratio was calculated (665/615) for each well and fitted to determine inhibition constant (IC50).
The ability of the compounds disclosed herein to inhibit demethylase activity was quantified and the respective IC50 value was determined. Table 3 provides the IC50 values of various compounds disclosed herein.

| Structure (SMILES) | IC50 [1] [nM] | IC50 [2] [nM] |
| --- | --- | --- |
| CN1CCC(N(C)c2cccc(N(C)c3ccc(Oc4nc(O)c5ccncc5n4)cc3)c2)CC1 [Example 89, 2-[4-[N-methyl-3-[methyl-(1-methylpiperidin-4-yl)amino]anilino]phenoxy]pyrido[3,4-d]pyrimidin-4-ol] | 1000 to 10000 | ≤ 100 |
| C[C@@H](c1ccccc1)N(C)c1ccc(Oc2nc(O)c3ccncc3n2)cc1 [Example 51, 2-[4-[methyl-[(1S)-1-phenylethyl]amino]phenoxy]pyrido[3,4-d]pyrimidin-4-ol] | 1000 to 10000 | 100 to 1000 |
| CC(CC#N)c1ccc(N(C)c2ccc(Oc3nc(O)c4ccncc4n3)cc2)cc1 (stereo not drawn) [Example 30, 3-(4-{[4-(4-hydroxy-pyrido[3,4-d]pyrimidin-2-yloxy)-phenyl]-methyl-amino}-phenyl)-butyronitrile] | ≤ 100 | 100 to 1000 |
| CCc1ccc(N(C)c2ccc(Oc3nc(O)c4ccncc4n3)cc2)cc1 [Example 84, 2-[4-(4-ethyl-N-methylanilino)phenoxy]pyrido[3,4-d]pyrimidin-4-ol] | ≤ 100 | 100 to 1000 |
| Oc1nc(Oc2ccc(N3CCOC(c4ccccc4)C3)cc2)nc2cnccc12 (stereo not drawn) [Example 26, 2-[4-(2-phenyl-morpholin-4-yl)-phenoxy]-pyrido[3,4-d]pyrimidin-4-ol] | > 10000 | 100 to 1000 |
| CN(c1ccc(Oc2nc(O)c3ccncc3n2)cc1)c1ccc(C(C)(C)CO)cc1 [Example 68, 2-[4-[4-(1-hydroxy-2-methylpropan-2-yl)-N-methylanilino]phenoxy]pyrido[3,4-d]pyrimidin-4-ol] | 100 to 1000 | 100 to 1000 |
| CN(CC1CCc2ccccc21)c1ccc(Oc2nc(O)c3ccncc3n2)cc1 (stereo not drawn) [Example 62, 2-[4-[2,3-dihydro-1H-inden-1-ylmethyl(methyl)amino]phenoxy]pyrido[3,4-d]pyrimidin-4-ol] | 1000 to 10000 | 100 to 1000 |
| CN(c1ccc(OCC(F)(F)F)cc1)c1ccc(Oc2nc(O)c3ccncc3n2)cc1 [Example 73, 2-[4-[N-methyl-4-(2,2,2-trifluoroethoxy)anilino]phenoxy]pyrido[3,4-d]pyrimidin-4-ol] | ≤ 100 | 100 to 1000 |
| Cc1ccc(N(C)c2ccc(Oc3nc(O)c4ccncc4n3)cc2)cc1C [Example 83, 2-[4-(N,3,4-trimethylanilino)phenoxy]pyrido[3,4-d]pyrimidin-4-ol] | 100 to 1000 | 1000 to 10000 |
| CN(c1ccc(Oc2nc(O)c3ccncc3n2)cc1)c1cccc(Cl)c1 [Example 95, 2-[4-(3-chloro-N-methylanilino)phenoxy]pyrido[3,4-d]pyrimidin-4-ol] | 1000 to 10000 | 1000 to 10000 |
| CN(c1ccc(Oc2nc(O)c3ccncc3n2)cc1)c1ccnc(N2CCOCC2)c1 [Example 61, 2-[4-[methyl-(2-morpholin-4-ylpyridin-4-yl)amino]phenoxy]pyrido[3,4-d]pyrimidin-4-ol] | > 10000 | ≤ 100 |
| COCC(C)(C)c1ccc(N(C)c2ccc(Oc3nc(O)c4ccncc4n3)cc2)cc1 [Example 67, 2-[4-[4-(1-methoxy-2-methylpropan-2-yl)-N-methylanilino]phenoxy]pyrido[3,4-d]pyrimidin-4-ol] | ≤ 100 | 1000 to 10000 |
| COCCNCC(C)c1ccc(N(C)c2ccc(Oc3nc(O)c4ccncc4n3)cc2)cc1 (stereo not drawn) [Example 100, 2-[4-[4-[1-(2-methoxyethylamino)propan-2-yl]-N-methylanilino]phenoxy]pyrido[3,4-d]pyrimidin-4-ol] | > 10000 | ≤ 100 |
| Oc1nc(Oc2ccc3c(ccn3Cc3ccccc3)c2)nc2cnccc12 [Example 4, 2-(1-Benzyl-1H-indol-5-yloxy)-pyrido[3,4-d]pyrimidin-4-ol] | 100 to 1000 | 100 to 1000 |
| CC(C)COc1ccc(N(C)c2ccc(Oc3nc(O)c4ccncc4n3)cc2)cc1 [Example 74, 2-[4-[N-methyl-4-(2-methylpropoxy)anilino]phenoxy]pyrido[3,4-d]pyrimidin-4-ol] | ≤ 100 | 1000 to 10000 |
| Oc1nc(Oc2ccc3c(ccn3C3CCNCC3)c2)nc2cnccc12 [Example 104, 2-(1-piperidin-4-ylindol-5-yl)oxypyrido[3,4-d]pyrimidin-4-ol] | > 10000 | ≤ 100 |
| CN(c1ccc(Oc2nc(O)c3ccncc3n2)cc1)c1ccc(C2CC2)cc1 [Example 42, 2-{4-[(4-cyclopropyl-phenyl)-methyl-amino]-phenoxy}-pyrido[3,4-d]pyrimidin-4-ol] | 100 to 1000 | 100 to 1000 |
| CN(c1ccc(Oc2nc(O)c3ccncc3n2)cc1)c1ccc(C(C)(C)O)cc1 [Example 64, 2-[4-[4-(2-hydroxypropan-2-yl)-N-methylanilino]phenoxy]pyrido[3,4-d]pyrimidin-4-ol] | 100 to 1000 | 100 to 1000 |
| CNCC(C)c1ccc(N(C)c2ccc(Oc3nc(O)c4ccncc4n3)cc2)cc1 (stereo not drawn) [Example 70, 2-[4-[N-methyl-4-[1-(methylamino)propan-2-yl]anilino]phenoxy]pyrido[3,4-d]pyrimidin-4-ol] | > 10000 | ≤ 100 |
| Cc1ccc(N(C)c2ccc(Oc3nc(O)c4ccncc4n3)cc2)cc1N1CCOCC1 [Example 55, 2-[4-(N,4-dimethyl-3-morpholin-4-ylanilino)phenoxy]pyrido[3,4-d]pyrimidin-4-ol] | 1000 to 10000 | 100 to 1000 |
| CN(c1ccc(Oc2nc(O)c3ccncc3n2)cc1)c1ccc(C(F)(F)F)cc1 [Example 87, 2-[4-[N-methyl-4-(trifluoromethyl)anilino]phenoxy]pyrido[3,4-d]pyrimidin-4-ol] | 100 to 1000 | 1000 to 10000 |
| CN1CCN(c2cccc(N(C)c3ccc(Oc4nc(O)c5ccncc5n4)cc3)c2)CC1 [Example 79, 2-[4-[N-methyl-3-(4-methylpiperazin-1-yl)anilino]phenoxy]pyrido[3,4-d]pyrimidin-4-ol] | ≤ 100 | ≤ 100 |
| CN(c1ccc(Oc2nc(O)c3ccncc3n2)cc1)c1ccc(C2(C(F)(F)F)CC2)cc1 [Example 107, 2-[4-[N-methyl-4-[1-(trifluoromethyl)cyclopropyl]anilino]phenoxy]pyrido[3,4-d]pyrimidin-4-ol] | ≤ 100 | 1000 to 10000 |
| CN(c1ccc(Oc2nc(O)c3ccncc3n2)cc1)c1ccc2nn(C)cc2c1 [Example 82, 2-[4-[methyl-(2-methylindazol-5-yl)amino]phenoxy]pyrido[3,4-d]pyrimidin-4-ol] | > 10000 | 100 to 1000 |
| Cc1ccc(N(C)c2ccc(Oc3nc(O)c4ccncc4n3)cc2)cc1N1CCN(C)CC1 [Example 105, 2-[4-[N,4-dimethyl-3-(4-methylpiperazin-1-yl)anilino]phenoxy]pyrido[3,4-d]pyrimidin-4-ol] | 1000 to 10000 | ≤ 100 |
| CN(c1ccc(Oc2nc(O)c3ccncc3n2)cc1)c1ccccn1 [Example 1, 2-[4-(Methyl-pyridin-2-yl-amino)-phenoxy]-pyrido[3,4-d]pyrimidin-4-ol] | 1000 to 10000 | 100 to 1000 |
| CN(c1ccc(Oc2nc(O)c3ccncc3n2)cc1)c1ccc(N2CCC(N)CC2)cc1 [Example 23, 2-(4-{[4-(4-amino-piperidin-1-yl)-phenyl]-methyl-amino}-phenoxy)-pyrido[3,4-d]pyrimidin-4-ol] | 1000 to 10000 | 100 to 1000 |
